Experimental data published in ChEMBL document CHEMBL1126574, “Non-peptide angiotensin II receptor antagonists. 2. Design, synthesis, and biological activity of N-substituted (phenylamino)phenylacetic acids and acyl sulfonamides” (J Med Chem, 1993).

What was measured:
[1] = target: T1, Type-2 angiotensin II receptor (Rattus norvegicus, UniProt P35351); assay: In vitro antagonist activity against angiotensin II type 2 (AT2) receptor in rat midbrain using [125I]- Sar, Ile AII.; type: functional
T1 sequence (P35351 whole entry): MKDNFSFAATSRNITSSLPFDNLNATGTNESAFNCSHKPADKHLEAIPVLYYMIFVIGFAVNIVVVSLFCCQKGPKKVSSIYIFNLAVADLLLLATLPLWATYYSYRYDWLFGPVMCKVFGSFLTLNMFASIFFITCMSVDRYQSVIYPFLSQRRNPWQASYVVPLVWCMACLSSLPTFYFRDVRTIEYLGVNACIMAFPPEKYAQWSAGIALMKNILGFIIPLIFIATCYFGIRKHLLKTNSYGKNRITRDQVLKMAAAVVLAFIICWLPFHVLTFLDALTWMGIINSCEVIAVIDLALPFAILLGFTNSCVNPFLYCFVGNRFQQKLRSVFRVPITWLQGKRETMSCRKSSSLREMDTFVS

[2] = target: T2, Type-1 angiotensin II receptor (Oryctolagus cuniculus, UniProt P34976); assay: In vitro antagonist activity against angiotensin II receptor type 1 in rabbit aorta using [125I]-Sar, Ile AII.; type: functional, tissue-based
T2 sequence (P34976 whole entry): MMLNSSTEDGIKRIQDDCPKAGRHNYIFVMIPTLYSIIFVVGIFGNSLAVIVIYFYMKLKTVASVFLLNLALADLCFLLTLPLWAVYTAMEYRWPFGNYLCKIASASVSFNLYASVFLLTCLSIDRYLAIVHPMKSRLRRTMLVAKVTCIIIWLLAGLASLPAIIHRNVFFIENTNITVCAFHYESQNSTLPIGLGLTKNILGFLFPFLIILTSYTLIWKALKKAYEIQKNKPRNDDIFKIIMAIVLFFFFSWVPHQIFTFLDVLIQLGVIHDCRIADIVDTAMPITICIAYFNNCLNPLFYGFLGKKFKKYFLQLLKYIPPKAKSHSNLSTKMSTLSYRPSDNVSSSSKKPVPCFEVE

Structure (SMILES)	IC50 [1]	IC50 [2]
CCc1nc2c(C)cc(C)nc2n1Cc1ccc(N(CC)C(C(=O)O)c2cc(C(F)(F)F)cc(C(F)(F)F)c2)cc1 (stereo not given)	12000 nM	1900 nM
CCc1nc2c(C)cc(C)nc2n1Cc1ccc(N(CC2CC2)C(C(=O)O)c2ccccc2)cc1 (stereo not given)	2200 nM	31 nM
CCc1nc2c(C)cc(C)nc2n1Cc1ccc(N(CC)C(C(=O)O)c2cccc(C)c2)cc1 (stereo not given)	2100 nM	66 nM
CCc1nc2c(C)cc(C)nc2n1Cc1ccc(N(C)C(C(=O)O)c2cc(F)ccc2F)cc1 (stereo not given)	> 10000 nM	> 100 nM
C=CCN(c1ccc(Cn2c(CC)nc3c(C)cc(C)nc32)cc1)C(C(=O)O)c1ccccc1 (stereo not given)	490 nM	5.3 nM
CCc1nc2c(C)cc(C)nc2n1Cc1ccc(N(C)C(C(=O)O)c2ccccc2)cc1 (stereo not given)	3400 nM	8.2 nM
CCc1nc2c(C)cc(C)nc2n1Cc1ccc(N(CC)C(C(=O)O)c2ccccc2)cc1 (stereo not given)	740 nM	4 nM
CCc1nc2c(C)cc(C)nc2n1Cc1ccc(NC(C(=O)O)c2ccccc2)c(C)c1 (stereo not given)	11000 nM	100 nM
CCc1nc2c(C)cc(C)nc2n1Cc1ccc(NC(C(=O)O)c2cc(C(F)(F)F)cc(C(F)(F)F)c2)cc1 (stereo not given)	6000 nM	860 nM
CCc1nc2c(C)cc(C)nc2n1Cc1ccc(N(C(C)CC)C(C(=O)O)c2ccccc2)cc1 (stereo not given)	1600 nM	80 nM
CCc1nc2c(C)cc(C)nc2n1Cc1ccc(N(CC(C)C)C(C(=O)O)c2ccccc2)cc1 (stereo not given)	> 300 nM	22 nM
CCc1nc2c(C)cc(C)nc2n1Cc1ccc(N(CC)C(C(=O)O)c2ccccc2Cl)cc1 (stereo not given)	> 10000 nM	380 nM
C=CCN(c1ccc(Cn2c(CC)nc3c(C)cc(C)nc32)cc1C)C(C(=O)O)c1ccccc1C (stereo not given)	11000 nM	82 nM
CCCN(c1ccc(Cn2c(CC)nc3c(C)cc(C)nc32)cc1C)C(C(=O)O)c1ccccc1 (stereo not given)	4800 nM	12 nM
CCc1nc2c(C)cc(C)nc2n1Cc1ccc(N(CC)C(C(=O)O)c2cc(F)ccc2F)cc1 (stereo not given)	> 10000 nM	88 nM
CCc1nc2c(C)cc(C)nc2n1Cc1ccc(N(CC)C(C(=O)O)c2ccccc2)c(C)c1 (stereo not given)	8600 nM	10 nM
CCc1nc2c(C)cc(C)nc2n1Cc1ccc(NC(C(=O)O)c2ccccc2)cc1 (stereo not given)	21000 nM	200 nM
CCCN(c1ccc(Cn2c(CC)nc3c(C)cc(C)nc32)cc1)C(C(=O)NS(=O)(=O)c1ccccc1)c1ccccc1 (stereo not given)	420 nM	0.8 nM
CCCN(c1ccc(Cn2c(CC)nc3c(C)cc(C)nc32)cc1)C(C(=O)O)c1ccccc1 (stereo not given)	560 nM	5.3 nM
C=CCN(c1ccc(Cn2c(CC)nc3c(C)cc(C)nc32)cc1C)C(C(=O)O)c1ccccc1 (stereo not given)	4300 nM	34 nM
CCCCN(c1ccc(Cn2c(CC)nc3c(C)cc(C)nc32)cc1)C(C(=O)O)c1ccccc1 (stereo not given)	660 nM	94 nM
C=CCN(c1ccc(Cn2c(CC)nc3c(C)cc(C)nc32)cc1)C(C(=O)NS(=O)(=O)c1ccccc1)c1ccccc1 (stereo not given)	2900 nM	1 nM
CCc1nc2c(C)cc(C)nc2n1Cc1ccc(N(CC)C(C(=O)NS(=O)(=O)c2ccccc2)c2ccccc2)cc1 (stereo not given)	200 nM	0.9 nM
CCc1nc2c(C)cc(C)nc2n1Cc1ccc(N(C)C(c2ccccc2)c2nnn[nH]2)cc1 (stereo not given)	> 30000 nM	15 nM
C=CCN(c1ccc(Cn2c(CC)nc3c(C)cc(C)nc32)cc1)C(C(=O)O)c1cc(F)ccc1F (stereo not given)	8800 nM	200 nM
CCc1nc2c(C)cc(C)nc2n1Cc1ccc(NC(C(=O)O)c2ccccc2C)c(C)c1 (stereo not given)	19000 nM	28 nM
CCc1nc2c(C)cc(C)nc2n1Cc1ccc(N(C)C(C(=O)O)c2ccccc2)c(C)c1 (stereo not given)	11000 nM	70 nM
CCc1nc2c(C)cc(C)nc2n1Cc1ccc(-c2ccccc2-c2nnn[nH]2)cc1 [L-158809]	> 10000 nM	
